For one assay, the system named is Ctenocephalides felis. In words: Flea (Ctenocephalides felis) Membrane Feed Assay-Adult. The following applies: adult fleas fed on treated citrated bovine blood, knockdown and/or death at 24 hours, lowest dose causing mortality ≥50%, read-out: Minimum Effective Concentration (MEC). On the procedure:
Flea (Ctenocephalides felis) Membrane Feed Assay-Adult
Compounds of the present invention were dissolved in DMSO and aliquots added to citrated bovine blood in membrane covered wells pre-warmed to 37° C. Adult fleas were newly emerged (3-7 days) and unfed. Feeding wells containing approximately 10 adult fleas were placed onto the treated blood wells, and the fleas were allowed to feed on the treated blood for 24 hours. […] Each compound was tested at half-log intervals, and endpoint data was recorded as Minimum Effective Concentration (MEC) in μM. MEC is a subjective visual assessment of organism viability, and is the lowest dose observed to cause mortality≧50%.

For the next assay, the system named is Ornithidorus turicata. In words: Soft Tick (Ornithidorus turicata) Blood Feed Assay. The following applies: nymphs fed on treated citrated bovine blood; knockdown and/or death at 24 and 72 hours. As for the experimental part:
Soft Tick (Ornithidorus turicata) Blood Feed Assay
Compounds were dissolved in DMSO and aliquots were added to citrated bovine blood in membrane covered wells warmed to 37° C. 5 nymphs were placed on the membrane, allowed to feed to repleation, and were placed in observation wells. […] Endpoint results for subjective visual assessment of organism viability were recorded as LD100 (the lowest dose to cause 100% mortality).

The next assay relates to Aedes aeqypti. The experiment in a line: Mosquito (Aedes aeqypti) Larval Assay - 1st Instar Larvae. The following applies: first instar larvae, 25° C., motility at 24 hours, lowest dose to inhibit motility ≥50% of untreated controls, read-out: Minimum Effective Concentration (MEC). On the procedure:
Mosquito (Aedes aeqypti) Larval Assay—1st Instar Larvae
Compounds were dissolved in DMSO and aliquots were spotted to empty wells. First instar larvae and maintenance media were added to the wells to obtain between 8 and 12 larvae per well in the appropriate final assay volume. Larvae were incubated in the treated media at 25° C. for 24 hours. Mosquito larvae motility was measured at 24 hours. Each compound was tested at half-log intervals, and endpoint results were recorded as Minimum Effective Concentration (MEC) in μM. MEC is an objective assessment of organism motility, and is the lowest dose to inhibit motility≧50% of untreated controls.

18 compounds from patent US9131697B2, “Spirocyclic isoxazolines as antiparasitic agents” (Zoetis Services LLC, priority 2012, dated 2015) can be followed below.

Structures are written as SMILES.

Consider `CC(C)C(=O)N1CC2(C1)OCc1nc(C3=NOC(c4cc(Cl)c(F)c(Cl)c4)(C(F)(F)F)C3)ccc12` (stereo not drawn) [Example 10, 1-(2′-(5-(3,5-dichloro-4-fluorophenyl)-5-(trifluoromethyl)-4,5-dihydroisoxazol-3-yl)-7′H-spiro[azetidine-3,5′-furo[3,4-b]pyridine]-1-yl)-2-methylpropan-1-one], for which the results for the minimal effective concentration in the assay on Ctenocephalides felis and with Aedes aeqypti were 3 µM and 0.03 µM, respectively. For the same compound, the “LD100 (the lowest dose to cause 100% mortality)” value in the assay on Ornithidorus turicata stood at 0.1 µg/mL.

For the compound `CC(C)C(=O)N1CC2(C1)OCc1nc(C3=NOC(c4cc(Cl)cc(Cl)c4)(C(F)(F)F)C3)ccc12` (stereo not drawn) [Example 11, 1-(2′-(5-(3,5-dichlorophenyl)-5-(trifluoromethyl)-4,5-dihydroisoxazol-3-yl)-7′H-spiro[azetidine-3,5′-furo[3,4-b]pyridine]-1-yl)-2-methylpropan-1-one], in the assay on Ornithidorus turicata, the “LD100 (the lowest dose to cause 100% mortality)” value was determined as 0.3 µg/mL. Also, in the assay on Aedes aeqypti, the minimal effective concentration turned out to be 0.3 µM.

`CS(=O)(=O)CC(=O)N1CC2(C1)OCc1nc(C3=NOC(c4cc(Cl)c(F)c(Cl)c4)(C(F)(F)F)C3)ccc12` (stereo not drawn) [Example 7, 1-(2′-(5-(3,5-dichloro-4-fluorophenyl)-5-(trifluoromethyl)-4,5-dihydroisoxazol-3-yl)-7′H-spiro[azetidine-3,5′-furo[3,4-b]pyridine]-1-yl)-2-(methylsulfonyl)ethanone]: the minimal effective concentration in the assay on Aedes aeqypti is 0.3 µM.

Take `CC(C)C(=O)N1CC2(C1)OCc1cc(C3=NOC(c4cc(Cl)cc(Cl)c4)(C(F)(F)F)C3)ncc12` (stereo not drawn) [Example 18, 1-(6′-(5-(3,5-dichlorophenyl)-5-(trifluoromethyl)-4,5-dihydroisoxazol-3-yl)-1′H-spiro[azetidine-3,3′-furo[3,4-c]pyridine]-1-yl)-2-methylpropan-1-one]: the results for the minimal effective concentration in the assay on Ctenocephalides felis and in the assay on Aedes aeqypti were 0.3 µM and 0.01 µM, respectively. Also, in the assay on Ornithidorus turicata, the “LD100 (the lowest dose to cause 100% mortality)” value is 0.03 µg/mL.

Consider `CS(=O)(=O)CC(=O)N1CC2(C1)OCc1cc(C3=NOC(c4cc(Cl)cc(Cl)c4)(C(F)(F)F)C3)ncc12` (stereo not drawn) [Example 15, 1-(6′-(5-(3,5-dichlorophenyl)-5-(trifluoromethyl)-4,5-dihydroisoxazol-3-yl)-1′H-spiro[azetidine-3,3′-furo[3,4-c]pyridine]-1-yl)-2-(methylsulfonyl)ethanone], for which the results for the minimal effective concentration with Ctenocephalides felis and in the assay on Aedes aeqypti were 3 µM and 0.03 µM, respectively.

Take `CC(C)C(=O)N1CC2(C1)OCc1cc(C3=NOC(c4cc(Cl)c(F)c(Cl)c4)(C(F)(F)F)C3)cnc12` (stereo not drawn) [Example 4, 3′-[5-(3,5-dichloro-4-fluorophenyl)-5-(trifluoromethyl)-4,5-dihydroisoxazol-3-yl]-1-isobutyryl-5′ H-spiro[azetidin-3,7′-furo[3,4,b]pyridine]]: the values for the minimal effective concentration in the assay with Ctenocephalides felis and in the assay on Aedes aeqypti were 0.1 µM and 0.01 µM, respectively. In addition, the “LD100 (the lowest dose to cause 100% mortality)” value with Ornithidorus turicata stood at 0.03 µg/mL.

On to `CC(C)C(=O)N1CC2(C1)OCc1cc(C3=NOC(c4cc(Cl)cc(Cl)c4)(C(F)(F)F)C3)cnc12` (stereo not drawn) [Example 5, 3′-[5-(3,5-dichlorophenyl)-5-(trifluoromethyl)-4,5-dihydroisoxazol-3-yl]-1-isobutyryl-5′H-spiro[azetidin-3,7′-furo[3,4,b]pyridine]], for which the figures for the minimal effective concentration in the assay with Ctenocephalides felis and in the assay with Aedes aeqypti were 1 µM and 0.03 µM, respectively. In addition, the “LD100 (the lowest dose to cause 100% mortality)” value with Ornithidorus turicata was 0.03 µg/mL.

Take `CS(=O)(=O)CC(=O)N1CC2(C1)OCc1cc(C3=NOC(c4cc(Cl)c(Cl)c(Cl)c4)(C(F)(F)F)C3)ncc12` (stereo not drawn) [Example 14, 2-(methylsulfonyl)-1-(6′-(5-(3,4,5-trichlorophenyl)-5-(trifluoromethyl)-4,5-dihydroisoxazol-3-yl)-1′H-spiro[azetidine-3,3′-furo[3,4-c]pyridine]-1-yl)ethanone]: the minimal effective concentration was determined as 1 µM with Ctenocephalides felis and 0.01 µM with Aedes aeqypti. Besides, the “LD100 (the lowest dose to cause 100% mortality)” value in the assay with Ornithidorus turicata came out at 0.3 µg/mL.

On to `CS(=O)(=O)CC(=O)N1CC2(C1)OCc1nc(C3=NOC(c4cc(Cl)cc(Cl)c4)(C(F)(F)F)C3)ccc12` (stereo not drawn) [Example 8, 1-(2′-(5-(3,5-dichlorophenyl)-5-(trifluoromethyl)-4,5-dihydroisoxazol-3-yl)-7′H-spiro[azetidine-3,5′-furo[3,4-b]pyridine]-1-yl)-2-(methylsulfonyl)ethanone], for which the minimal effective concentration with Aedes aeqypti stood at 0.3 µM.

As for `CS(=O)(=O)CC(=O)N1CC2(C1)OCc1cc(C3=NOC(c4cc(Cl)c(F)c(Cl)c4)(C(F)(F)F)C3)ncc12` (stereo not drawn) [Example 13, 1-(6′-(5-(3,5-dichloro-4-fluorophenyl)-5-(trifluoromethyl)-4,5-di hydroisoxazol-3-yl)-1′H-spiro[azetidine-3,3′-furo[3,4-c]pyridine]-1-yl)-2-(methylsulfonyl)ethanone], the minimal effective concentration stood at 1 µM in the assay on Ctenocephalides felis and 0.01 µM with Aedes aeqypti. Moreover, the “LD100 (the lowest dose to cause 100% mortality)” value with Ornithidorus turicata is 0.1 µg/mL.

Turning to `CS(=O)(=O)CC(=O)N1CC2(C1)OCc1cc(C3=NOC(c4cc(Cl)cc(Cl)c4)(C(F)(F)F)C3)cnc12` (stereo not drawn) [Example 1, 3′-[5-(3,5-dichlorophenyl)-5-(trifluoromethyl)-4,5-dihydroisoxazol-3-yl]-1-[(methylsulfonyl)acetyl]-5′H-spiro[azetidin-3,7′-furo[3,4,b]pyridine]], the values for the minimal effective concentration with Ctenocephalides felis and with Aedes aeqypti were 3 µM and 0.1 µM, respectively. The “LD100 (the lowest dose to cause 100% mortality)” value in the assay with Ornithidorus turicata amounted to 0.1 µg/mL.

With `CC(C)C(=O)N1CC2(C1)OCc1cc(C3=NOC(c4cc(Cl)c(Cl)c(Cl)c4)(C(F)(F)F)C3)cnc12` (stereo not drawn) [Example 6, 1-isobutyryl-3′-[5-(3,4,5-trichlorophenyl)-5-(trifluoromethyl)-4,5-dihydroisoxazol-3-yl]-5′H-spiro[azetidin-3,7′-furo[3,4,b]pyridine]], the results for the minimal effective concentration in the assay on Ctenocephalides felis and with Aedes aeqypti were 1 µM and 0.01 µM, respectively. The “LD100 (the lowest dose to cause 100% mortality)” value with Ornithidorus turicata amounted to 0.03 µg/mL.

As to `CS(=O)(=O)CC(=O)N1CC2(C1)OCc1nc(C3=NOC(c4cc(Cl)c(Cl)c(Cl)c4)(C(F)(F)F)C3)ccc12` (stereo not drawn) [Example 9, 2-(methylsulfonyl)-1-(2′-(5-(3,4,5-trichlorophenyl)-5-(trifluoromethyl)-4,5-dihydroisoxazol-3-yl)-7′H-spiro[azetidine-3,5′-furo[3,4-b]pyridine]-1-yl)ethanone], the minimal effective concentration with Aedes aeqypti is 0.3 µM.

For the compound `CS(=O)(=O)CC(=O)N1CC2(C1)OCc1cc(C3=NOC(c4cc(Cl)c(Cl)c(Cl)c4)(C(F)(F)F)C3)cnc12` (stereo not drawn) [Example 3, 1-[(methylsulfonyl)acetyl]-3′-[5-(3,4,5-trichlorophenyl)-5-(trifluoromethyl)-4,5-dihydroisoxazol-3-yl]-5′H-spiro[azetidin-3,7′-furo[3,4,b]pyridine]], the results for the minimal effective concentration in the assay on Ctenocephalides felis and in the assay on Aedes aeqypti were 1 µM and 0.03 µM, respectively. The “LD100 (the lowest dose to cause 100% mortality)” value in the assay on Ornithidorus turicata was determined as 0.3 µg/mL.

Consider `CC(C)C(=O)N1CC2(C1)OCc1cc(C3=NOC(c4cc(Cl)c(F)c(Cl)c4)(C(F)(F)F)C3)ncc12` (stereo not drawn) [Example 16, 1-(6′-(5-(3,5-dichloro-4-fluorophenyl)-5-(trifluoromethyl)-4,5-dihydroisoxazol-3-yl)-1′H-spiro[azetidine-3,3′-furo[3,4-c]pyridine]-1-yl)-2-methylpropan-1-one], for which the minimal effective concentration came out at 0.1 µM with Ctenocephalides felis and 0.001 µM in the assay with Aedes aeqypti. For the same compound, the “LD100 (the lowest dose to cause 100% mortality)” value in the assay with Ornithidorus turicata is 0.03 µg/mL.

Consider `CC(C)C(=O)N1CC2(C1)OCc1nc(C3=NOC(c4cc(Cl)c(Cl)c(Cl)c4)(C(F)(F)F)C3)ccc12` (stereo not drawn) [Example 12, 2-methyl-1-(2′-(5-(3,4,5-trichlorophenyl)-5-(trifluoromethyl)-4,5-dihydroisoxazol-3-yl)-7′H-spiro[azetidine-3,5′-furo[3,4-b]pyridine]-1-yl)propan-1-one], for which the “LD100 (the lowest dose to cause 100% mortality)” value with Ornithidorus turicata turned out to be 0.3 µg/mL. Further, the minimal effective concentration in the assay with Aedes aeqypti stood at 0.1 µM.

As to `CC(C)C(=O)N1CC2(C1)OCc1cc(C3=NOC(c4cc(Cl)c(Cl)c(Cl)c4)(C(F)(F)F)C3)ncc12` (stereo not drawn) [Example 17, 2-methyl-1-(6′-(5-(3,4,5-trichlorophenyl)-5-(trifluoromethyl)-4,5-dihydroisoxazol-3-yl)-1′H-spiro[azetidine-3,3′-furo[3,4-c]pyridine]-1-yl)propan-1-one], the minimal effective concentration in the assay with Ctenocephalides felis came out at 0.1 µM; in the assay with Aedes aeqypti, 0.01 µM. Also, the “LD100 (the lowest dose to cause 100% mortality)” value with Ornithidorus turicata is 0.03 µg/mL.

`CS(=O)(=O)CC(=O)N1CC2(C1)OCc1cc(C3=NOC(c4cc(Cl)c(F)c(Cl)c4)(C(F)(F)F)C3)cnc12` (stereo not drawn) [Example 2, 3′-[5-(3,5-dichloro-4-fluorophenyl)-5-(trifluoromethyl)-4,5-dihydroisoxazol-3-yl]-1-[(methylsulfonyl)acetyl]-5′H-spiro[azetidin-3,7-furo[3,4,b]pyridine]]: the minimal effective concentration worked out at 1 µM with Ctenocephalides felis and 0.03 µM in the assay on Aedes aeqypti. Further, the “LD100 (the lowest dose to cause 100% mortality)” value with Ornithidorus turicata was determined as 0.3 µg/mL.
